Measured values: patent US10149879B2 (priority 2014, dated 2018)

Key:
L6-myotubes = experiment: Anti-diabetic activity (glucose consumption) in L6-myotubes; type: cell-based; set-up: Anti-diabetic activity (glucose consumption): unit not given here; conditions: for Anti-diabetic activity (glucose consumption): L6-myotubes, control 1.00
3T3-L1 cells [1] = experiment: Cell viability assay in 3T3-L1 cells; conditions: for Cell viability: 3T3-L1, control 100.00
L6 cells = experiment: Anti-oxidant activity in L6 cells challenged with H2O2; type: cell-based; set-up: Anti-oxidant activity, cells challenged with H2O2: unit not given here; conditions: for Anti-oxidant activity, cells challenged with H2O2: L6; for protection against H2O2 induced cellular oxidative damage: L6 cells
Source text: Anti-Oxidant Activity in L6 Cells Challenged with H2O2 Berberin and Palmatine
Anti-Oxidant Activity in L6 Cells Challenged with H2O2—Berberin and Quercetin

[2] = tested on: nor-epinephrine, serotonin and dopamine in whole brain; conditions: mice; acute administration 5 mg/kg ip; cited from earlier work
3T3-L1 cells [3] = experiment: Anti-oxidant activity in 3T3-L1 cells challenged with H2O2; type: cell-based; set-up: Anti-oxidant activity, cells challenged with H2O2: scale not given here; conditions: for Anti-oxidant activity, cells challenged with H2O2: 3T3-L1; for protection against H2O2 induced cellular oxidative damage: 3T3-L1 cells
Source text: Anti-Oxidant Activity in 3T3-L1 Cells Challenged with H2O2 Berberin and Palmatine
Anti-Oxidant Activity in 3T3-L1 Cells Challenged with H2O2 Berberin and Quercetin

βTC6 insulinoma cell = experiment: Cell viability assay in βTC6 insulinoma cell line; type: cell-based; conditions: for Cell viability: βTC6, control 100.00
Source text: Cell Viability Assay in βTC6 Insulinoma Cell Lime Following—

[4] = comparison with positive standard

COc1ccc2cc3[n+](cc2c1OC)CCc1cc2c(cc1-3)OCO2 [Berberin]
Anti-diabetic activity (glucose consumption) (L6-myotubes; 1 nM): 1.38 ± 0.08
Anti-diabetic activity (glucose consumption) (L6-myotubes; 5 nM): 1.78 ± 0.08
Anti-diabetic activity (glucose consumption) (L6-myotubes; 25 nM): 1.98 ± 0.08
Anti-diabetic activity (glucose consumption) (L6-myotubes; 125 nM): 2.30 ± 0.08
Anti-diabetic activity (glucose consumption) (L6-myotubes; 625 nM): 2.50 ± 0.10
glucose consumption (L6-myotubes; differentiated L6-myotubes, dose dependent): accelerated glucose consumption
Cell viability (3T3-L1 cells [1]; 10 pM): 99.50 ± 1.50
Cell viability (3T3-L1 cells [1]; 100 pM): 99.99 ± 2.80
Cell viability (3T3-L1 cells [1]; 1 nM): 99.88 ± 0.91
Cell viability (3T3-L1 cells [1]; 10 nM): 98.25 ± 1.20
Cell viability (3T3-L1 cells [1]; 100 nM): 97.69 ± 1.09
Cell viability (3T3-L1 cells [1]; 1 μM): 90.68 ± 2.05
Cell viability (3T3-L1 cells [1]; 10 μM): 75.12 ± 2.85
Cell viability (3T3-L1 cells [1]; 100 μM): 62.54 ± 4.20
toxicity to the cell (3T3-L1 cells [1]; 3T3-L1 cells, 1 μM): non-toxic
Anti-oxidant activity, cells challenged with H2O2 (L6 cells; Co-incubated, 10 pM, control 60.10): 62.10 ± 4.40
Anti-oxidant activity, cells challenged with H2O2 (L6 cells; Co-incubated, 10 pg/ml, control 61.10): 60.40 ± 2.20
Anti-oxidant activity, cells challenged with H2O2 (L6 cells; Co-incubated, 100 pM, control 60.10): 63.97 ± 8.52
Anti-oxidant activity, cells challenged with H2O2 (L6 cells; Co-incubated, 100 pg/ml, control 61.10): 66.12 ± 2.70
Anti-oxidant activity, cells challenged with H2O2 (L6 cells; Co-incubated, 1 nM, control 60.10): 66.10 ± 5.67
Anti-oxidant activity, cells challenged with H2O2 (L6 cells; Co-incubated, 1 ng/ml, control 61.10): 70.07 ± 2.95
Anti-oxidant activity, cells challenged with H2O2 (L6 cells; Co-incubated, 10 nM, control 60.10): 69.40 ± 5.00
Anti-oxidant activity, cells challenged with H2O2 (L6 cells; Co-incubated, 10 ng/ml, control 61.10): 75.14 ± 0.90
Anti-oxidant activity, cells challenged with H2O2 (L6 cells; Co-incubated, 100 nM, control 60.10): 72.40 ± 3.03
Anti-oxidant activity, cells challenged with H2O2 (L6 cells; Co-incubated, 100 ng/ml, control 61.10): 77.51 ± 1.70
Anti-oxidant activity, cells challenged with H2O2 (L6 cells; Pre-incubated, 10 pM, control 60.10): 59.80 ± 6.60
Anti-oxidant activity, cells challenged with H2O2 (L6 cells; Pre-incubated, 10 pg/ml, control 61.10): 63.50 ± 1.00
Anti-oxidant activity, cells challenged with H2O2 (L6 cells; Pre-incubated, 100 pM, control 60.10): 60.40 ± 8.50
Anti-oxidant activity, cells challenged with H2O2 (L6 cells; Pre-incubated, 100 pg/ml, control 61.10): 69.40 ± 2.00
Anti-oxidant activity, cells challenged with H2O2 (L6 cells; Pre-incubated, 1 nM, control 60.10): 63.70 ± 7.25
Anti-oxidant activity, cells challenged with H2O2 (L6 cells; Pre-incubated, 1 ng/ml, control 61.10): 71.12 ± 1.12
Anti-oxidant activity, cells challenged with H2O2 (L6 cells; Pre-incubated, 10 nM, control 60.10): 68.60 ± 4.50
Anti-oxidant activity, cells challenged with H2O2 (L6 cells; Pre-incubated, 10 ng/ml, control 61.10): 78.98 ± 1.90
Anti-oxidant activity, cells challenged with H2O2 (L6 cells; Pre-incubated, 100 nM, control 60.10): 72.81 ± 5.70
Anti-oxidant activity, cells challenged with H2O2 (L6 cells; Pre-incubated, 100 ng/ml, control 61.10): 83.70 ± 1.70
protection against H2O2 induced cellular oxidative damage (L6 cells; [4]): potent protection
protection against H2O2 induced cellular oxidative damage (L6 cells; pM-nM doses): mild protection
increased level of dopamine in whole brain [2]: 31%
increased level of nor-epinephrine in whole brain [2]: 31%
increased level of serotonin in whole brain [2]: 47%
Anti-oxidant activity, cells challenged with H2O2 (3T3-L1 cells [3]; Co-incubated, 10 pM, control 50.00): 56.00 ± 3.35
Anti-oxidant activity, cells challenged with H2O2 (3T3-L1 cells [3]; Co-incubated, 10 pg/ml, control 49.00): 53.00 ± 2.50
Anti-oxidant activity, cells challenged with H2O2 (3T3-L1 cells [3]; Co-incubated, 100 pM, control 50.00): 58.96 ± 1.20
Anti-oxidant activity, cells challenged with H2O2 (3T3-L1 cells [3]; Co-incubated, 100 pg/ml, control 49.00): 57.80 ± 2.50
Anti-oxidant activity, cells challenged with H2O2 (3T3-L1 cells [3]; Co-incubated, 1 nM, control 50.00): 61.80 ± 1.80
Anti-oxidant activity, cells challenged with H2O2 (3T3-L1 cells [3]; Co-incubated, 1 ng/ml, control 49.00): 65.15 ± 1.99
Anti-oxidant activity, cells challenged with H2O2 (3T3-L1 cells [3]; Co-incubated, 10 nM, control 50.00): 63.00 ± 1.60
Anti-oxidant activity, cells challenged with H2O2 (3T3-L1 cells [3]; Co-incubated, 100 nM, control 50.00): 63.38 ± 2.10
Anti-oxidant activity, cells challenged with H2O2 (3T3-L1 cells [3]; Co-incubated, 100 ng/ml (first of two lines so printed, r7), control 49.00): 70.80 ± 3.25
Anti-oxidant activity, cells challenged with H2O2 (3T3-L1 cells [3]; Co-incubated, 100 ng/ml (second line, r8), control 49.00): 77.50 ± 2.95
Anti-oxidant activity, cells challenged with H2O2 (3T3-L1 cells [3]; Pre-incubated, 10 pM, control 50.00): 52.01 ± 2.80
Anti-oxidant activity, cells challenged with H2O2 (3T3-L1 cells [3]; Pre-incubated, 10 pg/ml, control 49.00): 55.00 ± 2.00
Anti-oxidant activity, cells challenged with H2O2 (3T3-L1 cells [3]; Pre-incubated, 100 pM, control 50.00): 55.76 ± 2.80
Anti-oxidant activity, cells challenged with H2O2 (3T3-L1 cells [3]; Pre-incubated, 100 pg/ml, control 49.00): 58.00 ± 1.70
Anti-oxidant activity, cells challenged with H2O2 (3T3-L1 cells [3]; Pre-incubated, 1 nM, control 50.00): 59.95 ± 2.10
Anti-oxidant activity, cells challenged with H2O2 (3T3-L1 cells [3]; Pre-incubated, 1 ng/ml, control 49.00): 64.00 ± 1.90
Anti-oxidant activity, cells challenged with H2O2 (3T3-L1 cells [3]; Pre-incubated, 10 nM, control 50.00): 61.13 ± 1.05
Anti-oxidant activity, cells challenged with H2O2 (3T3-L1 cells [3]; Pre-incubated, 100 nM, control 50.00): 64.25 ± 2.30
Anti-oxidant activity, cells challenged with H2O2 (3T3-L1 cells [3]; Pre-incubated, 100 ng/ml (first of two lines so printed, r7), control 49.00): 67.40 ± 3.70
Anti-oxidant activity, cells challenged with H2O2 (3T3-L1 cells [3]; Pre-incubated, 100 ng/ml (second line, r8), control 49.00): 75.00 ± 4.15
protection against H2O2 induced cellular oxidative damage (3T3-L1 cells [3]; [4]): potent protection
protection against H2O2 induced cellular oxidative damage (3T3-L1 cells [3]; pM-nM doses): mild protection
Cell viability (βTC6 insulinoma cell; 1 pM): 97.95 ± 1.12
Cell viability (βTC6 insulinoma cell; 10 pM): 96.99 ± 2.20
Cell viability (βTC6 insulinoma cell; 100 pM): 94.60 ± 2.45
Cell viability (βTC6 insulinoma cell; 1 nM): 90.89 ± 1.42
Cell viability (βTC6 insulinoma cell; 10 nM): 88.65 ± 2.60
Cell viability (βTC6 insulinoma cell; 100 nM): 86.30 ± 1.67
Cell viability (βTC6 insulinoma cell; 1 μM): 73.75 ± 2.90
Cell viability (βTC6 insulinoma cell; 10 μM): 67.89 ± 1.65
toxicity to the cells (βTC6 insulinoma cell; βTC6 insulinoma cells, 10 ng/ml): non-toxic
